The target in assay [1] is human α2β3γ2 GABAARs (benzodiazepine site) (Homo sapiens (Human), UniProt P18507+P47869). Description: In vitro radioligand binding assay ([3H]Ro15-1788 displacement), α2-GABAAR Ki. Here is the method: The affinity (Ki) of compounds for the benzodiazepine site of human recombinant GABAARs was measured by their ability to inhibit the binding of the selective benzodiazepine antagonist [^3H]Ro15-1788 ([^3H] flumazenil).
Mouse L(tk^−) cells stably expressing human α1β3γ2, α2β3γ2, α3β3γ2, α5β3γ2 GABAARs were generated by transfection of the individual subunits in the dexamethasone-inducible expression vector pMSGneo in mouse L(tk^−) cells (Hadingham et al., 1993, Mol. Pharmacol. 43:970-975 and 1993, Mol. Pharmacol. 44:1211-1218).
L(tk^−) cells stably expressing human α1β3γ2, α2β3γ2, α3β3γ2, α5β3γ2 GABAARs were maintained in DMEM F12 medium supplemented with 10% Foetal Bovine Serum, 1% Penicillin/Streptomycin and 1 mg/mL Geneticin G418 in an incubator at 37° C. with a humidified atmosphere with 5% CO2. Dexamethasone was added to the culture medium to induce GABAAR expression.
L(tk−) cells were harvested and membranes were prepared for each receptor combination in either TE buffer (10 mM Tris·CI/0.1 mM EDTA, pH 7.5) or phosphate buffer (K2PO4 10 mM, pH 7.0) (Hadingham et al. (1992) Proc. Natl. Acad. Sci. USA; 89 (14): 6378-82). Protein concentration, receptor expression and the Kd of [^3H]Ro15-1788 were determined before Ki value of the compounds were evaluated. For Kd evaluation, saturation binding curves were obtained by incubating membrane with various concentrations of [^3H]Ro15-1788 (82.5 Ci/mM), with nonspecific binding measured in the presence of 1-3 μM TP003.
For Ki evaluation, cell membranes were incubated with 4 nM [^3H]Ro15-1788 along with a range of concentrations of test compound. Nonspecific binding was determined using 1-3 μM TP003. All incubations were performed for 1 hour at 4° C. in assay buffer. The total assay volume was 0.5 mL, containing 40 μg/well α1β3γ2, 30 μg/well α2β3γ2, 40 μg/well α3β3γ2 and 30 μg/well for α5β3γ2 of membrane protein. Incubations were terminated by filtration and washing with ice cold Tris-HCl buffer (50 mM, pH=7.4) over Whatman GF/B filters and the radioactivity of the filters was measured using liquid scintillation counting.
The % inhibition of [^3H]Ro15-1788 binding was plotted as a function of compound concentration and the IC50 calculated. From the IC50, the affinity (Ki) was calculated using the method of Cheng and Prusoff using the Kd values obtained for [^3H]Ro15-1788.

Another assay concerns human α2β3γ2 GABAARs. Description: In vitro electrophysiological recording assay (automated patch-clamp), α2-GABAAR relative efficacy. The assay is classed as cell-based. To be noted: % efficacy normalised to diazepam; GABA EC10-20; concentration generally >= 100 times Ki. Here is the method:
The efficacy of modulators was evaluated using the automated patch-clamp platforms QPatch16 (Sophion, Copenhagen, Denmark) or SyncroPatch 384PE (Nanion, Germany).
For QPatch electrophysiology testing L(tk^−) cells stably expressing human α1β3γ2, α2β3γ2, α3β3γ2, α5β3γ2 GABAARs were used. HEK293 cells stably expressing human α1β3γ2L, α2β3γ2L, α3β3γ2L and α5β3γ2L GABAARs were used for the SyncroPatch 384PE experiments.
All experiments were carried out at room temperature (20-22° C.) using a standard whole cell procedure and physiological solutions. Gigaseals were formed upon execution of a combined suction/voltage protocol with subsequent increased suction leading to the whole-cell configuration.
The currents recorded were acquired at either 1 KHz or 2 KHz and filtered using a Bessel filter. Whole-cell currents were measured at a holding potential of-65 mV (QPatch) or −80 mV (SyncroPatch).
For QPatch experiments, the extracellular solution contained of: 145 mM NaCl, 4 mM KCl, 1 mM MgCl2, 2 mM CaCl2), 10 mM HEPES, 10 mM D-glucose (pH 7.4), and the intracellular solution consisted of: 96 mM KCl, 28 mM CsCl, 25 mM KOH, 4.3 mM CaCl2), 1.4 mM MgCl2, 10 mM EGTA, 10 mM HEPES, 3 mM MgATP (pH 7.2). The osmolarities of the extracellular and intracellular solutions were 305 and 295 mOsm respectively.
For SyncroPatch experiments, the extracellular recording solution contained: 140 mM NaCl, 4 mM KCl, 2 mM CaCl2), 1 mM MgCl2, 10 mM HEPES, 5 mM glucose (pH 7.4 with NaOH and osmolarity of c. 300-310 mOsm). The intracellular recording solution consisted of: 90 mM KCl, 50 mM KF, 1.5 mM MgCl2, 11.1 mM EGTA and 10 mM HEPES (pH 7.2 with KOH and osmolarity of c. 300 mOsm). 2 mM of NaATP was added to the intracellular solution on the day of testing.
The effects of modulators were evaluated in the presence of a submaximal GABA concentration, giving typically less than 30% activation of the response elicited by a saturating GABA concentration. To check and ensure baseline current stability before compound addition, two to five consecutive applications of GABA EC10-20 separated by wash steps were performed before compound addition. The test compound was applied 1 min at least prior to co-application with GABA EC10-20. Following a further wash step, a saturating concentration of GABA was applied at the end of each recording, allowing the accurate evaluation for each cell of the percentage baseline activation elicited by the submaximal GABA applied.
The compounds were first dissolved in DMSO as a 10 mM stock and then further diluted to the testing concentrations so that the final DMSO concentration in the extracellular recording solution was 0.1% (QPatch) or 0.2% (SyncroPatch).
The % efficacy of modulators was determined from the GABA elicited currents recorded in the presence and absence of the test compound, using the formula:
[((compound peak current−leak)−(GABA peak current-leak))/(GABA peak current−leak)]*100,
where ‘leak’ is the leak baseline current at the holding potential, ‘compound peak current’ is the current elicited by co-application of compound and GABA, and ‘GABA peak current’ is the current elicited by GABA alone at the last GABA application before compound addition. The results were presented as ‘relative efficacy’ for each compound generally at a concentration equal or higher than 100 times their determined Ki. The relative efficacy of a compound was calculated by normalising its % efficacy to the corresponding % efficacy of diazepam that was separately determined.

Setting [2] is: L(tk-) cell membranes, 4 nM [3H]Ro15-1788, read-out: α2-GABAAR Ki.

These results are taken from US20250197368A1 (priority 2020, published 2025).

Molecules are shown by their SMILES. Counter-ions that a name gives are not always drawn. Like-named read-outs stand apart in the source and are kept apart here.

Sequence of human α2β3γ2 GABAARs (benzodiazepine site) (P47869 29-451): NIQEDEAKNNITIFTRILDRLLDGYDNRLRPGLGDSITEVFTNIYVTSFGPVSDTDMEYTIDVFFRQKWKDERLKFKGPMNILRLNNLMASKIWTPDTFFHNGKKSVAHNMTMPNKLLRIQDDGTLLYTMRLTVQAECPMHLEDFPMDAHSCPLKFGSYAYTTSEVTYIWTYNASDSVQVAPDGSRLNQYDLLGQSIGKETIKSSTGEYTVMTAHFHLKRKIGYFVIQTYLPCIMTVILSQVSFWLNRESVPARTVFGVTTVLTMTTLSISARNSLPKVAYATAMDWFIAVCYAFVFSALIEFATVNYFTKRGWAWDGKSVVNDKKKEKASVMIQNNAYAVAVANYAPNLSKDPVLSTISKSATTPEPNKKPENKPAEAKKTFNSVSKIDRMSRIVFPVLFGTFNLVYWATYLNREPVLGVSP
Sequence of human α2β3γ2 GABAARs (benzodiazepine site) (P28472 26-473 partner): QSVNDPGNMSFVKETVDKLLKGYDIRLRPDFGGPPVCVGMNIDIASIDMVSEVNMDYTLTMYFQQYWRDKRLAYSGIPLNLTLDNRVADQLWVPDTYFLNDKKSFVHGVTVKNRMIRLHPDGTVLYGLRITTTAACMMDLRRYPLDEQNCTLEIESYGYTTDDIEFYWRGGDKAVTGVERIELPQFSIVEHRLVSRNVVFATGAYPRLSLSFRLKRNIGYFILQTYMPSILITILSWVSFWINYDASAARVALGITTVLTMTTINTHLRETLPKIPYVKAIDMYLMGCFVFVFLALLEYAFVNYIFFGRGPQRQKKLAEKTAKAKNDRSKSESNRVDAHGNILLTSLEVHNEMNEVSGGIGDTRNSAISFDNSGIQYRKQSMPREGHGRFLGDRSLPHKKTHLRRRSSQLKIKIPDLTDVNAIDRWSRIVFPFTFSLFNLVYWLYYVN
Sequence of human α2β3γ2 GABAARs (benzodiazepine site) (P18507 40-475): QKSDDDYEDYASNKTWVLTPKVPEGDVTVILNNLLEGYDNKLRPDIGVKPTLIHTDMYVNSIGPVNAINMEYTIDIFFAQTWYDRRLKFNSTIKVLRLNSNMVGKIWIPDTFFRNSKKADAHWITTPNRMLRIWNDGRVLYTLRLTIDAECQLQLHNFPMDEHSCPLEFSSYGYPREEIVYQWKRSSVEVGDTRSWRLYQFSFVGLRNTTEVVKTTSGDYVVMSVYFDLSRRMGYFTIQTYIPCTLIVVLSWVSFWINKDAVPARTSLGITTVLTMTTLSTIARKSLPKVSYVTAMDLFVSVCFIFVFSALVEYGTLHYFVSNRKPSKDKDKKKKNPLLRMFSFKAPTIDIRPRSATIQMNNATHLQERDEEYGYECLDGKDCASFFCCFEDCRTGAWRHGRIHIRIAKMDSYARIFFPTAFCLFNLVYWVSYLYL

Usually Ki stands for a measure of affinity in units of concentration, obtained from inhibition or displacement. On to `CCCNC(=O)c1c(N)c2cccc(-c3cc(OCc4noc(C)n4)ccc3F)c2[nH]c1=O` [Example 130, 4-Amino-8-[2-fluoro-5-[(5-methyl-1,2,4-oxadiazol-3-yl)methoxy]phenyl]-2-oxo-N-propyl-1H-quinoline-3-carboxamide], for which the Ki in assay [1] is 0.65 nM. The “α2-GABAAR Relative Efficacy (vs. Diazepam)” value (shortened to “α2-GABAAR Relative Efficacy”) in the assay on human α2β3γ2 GABAARs was 0.18. As to `CCCNC(=O)c1c(N)c2cccc(-c3cc(CN4CC5(CCN(C)C5)C4)ccc3F)c2[nH]c1=O` [Example 139, 4-Amino-8-(2-fluoro-5-((6-methyl-2,6-diazaspiro[3.4]octan-2-yl)methyl)phenyl)-2-oxo-N-propyl-1,2-dihydroquinoline-3-carboxamide], the Ki in assay [1] was determined as 1.08 nM. The “α2-GABAAR Relative Efficacy” value in the assay on human α2β3γ2 GABAARs stood at 0.18.

With `CCCNC(=O)c1c(N)c2cccc(-c3cc(OCc4cccnc4)ccc3F)c2[nH]c1=O` [Example 108, 4-Amino-8-[2-fluoro-5-(3-pyridylmethoxy)phenyl]-2-oxo-N-propyl-1H-quinoline-3-carboxamide], the Ki in assay [1] came out at 0.39 nM. Moreover, the “α2-GABAAR Relative Efficacy” value with human α2β3γ2 GABAARs was determined as 0.32.

On to `COc1ccncc1-c1cccc2c(N)c(C(=O)NCC(F)F)c(=O)[nH]c12` [Example 61, 4-Amino-N-(2,2-difluoroethyl)-8-(4-methoxy-3-pyridyl)-2-oxo-1H-quinoline-3-carboxamide], for which the Ki in assay [1] (setting [2]) is 107 nM.

Turning to `CCCNC(=O)c1c(N)c2cccc(-c3cc(OCCn4cnnc4)ccc3F)c2[nH]c1=O` [Example 134, 4-Amino-8-[2-fluoro-5-[2-(1,2,4-triazol-4-yl)ethoxy]phenyl]-2-oxo-N-propyl-1H-quinoline-3-carboxamide], the Ki in assay [1] was 0.17 nM. Further, the “α2-GABAAR Relative Efficacy” value in the assay with human α2β3γ2 GABAARs was determined as 0.04. `CCCNC(=O)c1c(N)c2cccc(-c3cc(OCc4cn(C)cn4)ccc3F)c2[nH]c1=O` [Example 126, hydrochloride]: the Ki in assay [1] came out at 1.19 nM. Besides, in the assay with human α2β3γ2 GABAARs, the “α2-GABAAR Relative Efficacy” value amounted to 0.27. Taken in the same sequence, the figures for `CCCNC(=O)c1c(N)c2cccc(-c3cc(OCC4COC4)ccc3F)c2[nH]c1=O` [Example 136, 4-Amino-8-[2-fluoro-5-(oxetan-3-ylmethoxy)phenyl]-2-oxo-N-propyl-1H-quinoline-3-carboxamide] were 0.9 nM and 0.24. `Cc1nn(C)cc1-c1cccc2c(N)c(C(=O)NCC3COC3)c(=O)[nH]c12` [Example 72, 4-Amino-8-(1,3-dimethyl-1H-pyrazol-4-yl)-N-(oxetan-3-ylmethyl)-2-oxo-1,2-dihydroquinoline-3-carboxamide]: the Ki in assay [1] (setting [2]) was more than 500 nM. Turning to `CCCNC(=O)c1c(N)c2cccc(-c3cc(OCc4ccoc4)ccc3F)c2[nH]c1=O` [Example 116, 4-Amino-8-(2-fluoro-5-(furan-3-ylmethoxy)phenyl)-2-oxo-N-propyl-1,2-dihydroquinoline-3-carboxamide], the Ki in assay [1] amounted to 1.17 nM. In addition, in the assay on human α2β3γ2 GABAARs, the “α2-GABAAR Relative Efficacy” value worked out at 0.42. On to `CNC(=O)c1c(N)c2cccc(-c3cnccc3OC)c2[nH]c1=O` [Example 55, 4-Amino-8-(4-methoxy-3-pyridyl)-N-methyl-2-oxo-1H-quinoline-3-carboxamide], for which the Ki in assay [1] (setting [2]) turned out to be 159 nM.

For the compound `Cc1nn(C)cc1-c1cccc2c(N)c(C(=O)NCCCN(C)C)c(=O)[nH]c12` [Example 75, 4-Amino-N-[3-(dimethylamino)propyl]-8-(1,3-dimethylpyrazol-4-yl)-2-oxo-1H-quinoline-3-carboxamide], the Ki in assay [1] (setting [2]) stood at 171 nM. Still for that read-out and setting: for `COc1ccncc1-c1cccc2c(N)c(C(=O)NC3COC3)c(=O)[nH]c12` [Example 58, 4-Amino-8-(4-methoxy-3-pyridyl)-N-(oxetan-3-yl)-2-oxo-1H-quinoline-3-carboxamide] the value was 154 nM. For `COc1ccncc1-c1cccc2c(N)c(C(=O)NCC(C)(F)F)c(=O)[nH]c12` [Example 65, 4-Amino-N-(2,2-difluoropropyl)-8-(4-methoxy-3-pyridyl)-2-oxo-1H-quinoline-3-carboxamide], the Ki in assay [1] turned out to be 55.2 nM. Same read-out and setting: for `COc1ccncc1-c1cccc2c(N)c(C(=O)NCCCO)c(=O)[nH]c12` [Example 66, 4-Amino-N-(3-hydroxypropyl)-8-(4-methoxy-3-pyridyl)-2-oxo-1H-quinoline-3-carboxamide] the value was 18.6 nM; for `COc1ccncc1-c1cccc2c(N)c(C(=O)NC3CC3)c(=O)[nH]c12` [Example 57, 4-Amino-N-cyclopropyl-8-(4-methoxy-3-pyridyl)-2-oxo-1H-quinoline-3-carboxamide], 73.3 nM.

Consider `CCCNC(=O)c1c(N)c2ccnc(-c3cnccc3OC)c2[nH]c1=O` [Example 84, 4-Amino-8-(4-methoxypyridin-3-yl)-2-oxo-N-propyl-1,2-dihydro-1,7-naphthyridine-3-carboxamide], for which the Ki in assay [1] was found to be 75.5 nM. On to `Cc1nn(C)cc1-c1cccc2c(N)c(C(=O)NCCC#N)c(=O)[nH]c12` [Example 74, 4-Amino-N-(2-cyanoethyl)-8-(1,3-dimethylpyrazol-4-yl)-2-oxo-1H-quinoline-3-carboxamide], for which, in assay [1] (setting [2]), the Ki was more than 500 nM.

`Nc1c(C(=O)NC2CC2)c(=O)[nH]c2c(-c3cnccc3OC(F)F)cccc12` [Example 70, 4-Amino-N-cyclopropyl-8-[4-(difluoromethoxy)-3-pyridyl]-2-oxo-1H-quinoline-3-carboxamide]: in assay [1] (setting [2]), the Ki is more than 500 nM. With `COCCNC(=O)c1c(N)c2cccc(-c3cnccc3OC(F)F)c2[nH]c1=O` [Example 71, 4-Amino-8-[4-(difluoromethoxy)-3-pyridyl]-N-(2-methoxyethyl)-2-oxo-1H-quinoline-3-carboxamide], in assay [1] (setting [2]), the Ki is more than 500 nM. As for `CCCNC(=O)c1c(N)c2cccc(-c3cnccc3OC)c2n(C)c1=O` [Example 77, 4-Amino-8-(4-methoxy-3-pyridyl)-1-methyl-2-oxo-N-propyl-quinoline-3-carboxamide], in assay [1], the Ki was determined as 2.77 nM.
